Paper PMC3960879 (Biology, 2013)
Like-named read-outs stand apart in the source and are kept apart here.

Legend:
[1] = target: T1, F17aG receptor-binding domain (Escherichia coli, UniProt Q99003); experiment: biochemical
T1 construct: variants of the lectin domains with oligolysine (4Lys) tails have been constructed; made in house; host or cells: E. coli (periplasm)
Experimental: (§1) The affinity profiles were determined by surface plasmon resonance (SPR) measurements using a BiaCore 3000 instrument (GE Healthcare). […] The proteins were covalently immobilized on CM5 sensor chips (Biacore AB) to an average density of 2000 RU (resonance units in pg/mm^2). On each chip, one flow cell was coated with a camel single domain antibody for use as a reference cell. The other three flow cells (Fc2, Fc3 and Fc4) were coated with three different F17G variants. Carbohydrate concentrations ranging from 10 µM to 10 mM in running buffer (20 mM Hepes, pH 7.4; 150 mM NaCl; 3 mM EDTA and 0.005% surfactant Tween 20) were incubated for one minute on all flow cells simultaneously, at 25 °C and at a flow rate of 30 µL/min. Complete dissociation of the carbohydrates in running buffer was verified before starting a new binding cycle. All binding cycles were performed in duplicate, including a zero concentration cycle (injection of pure running buffer). All analysis was done using the BIAeval software. In each case the equilibrium resonance signal from the reference cell was subtracted from that of the various F17G flow cells (2-1, 3-1, 4-1). A Langmuir binding isotherm with a 1:1 stoichiometry was fitted to the data, from which the equilibrium dissociation constants, Kd, were obtained.

[2] = target: F17eG receptor-binding domain; experiment: Surface plasmon resonance steady-state affinity, immobilized F17eG; set-up: species or system Escherichia coli; settings: SPR steady state, 25 °C, pH 7.4
Experimental: as §1

[3] = target: F17fG receptor-binding domain (Escherichia coli, UniProt Q9RH91); experiment: Surface plasmon resonance steady-state affinity, immobilized F17fG; settings: SPR steady state, 25 °C, pH 7.4; read-out: Affinity range (Kd class), F17fG
Experimental: as §1

[4] = target: T2, F17bG receptor-binding domain (Escherichia coli, UniProt Q47200); settings: SPR steady state, 25 °C, pH 7.4; read-out: Affinity range (Kd class), F17bG
T2 construct: variants of the lectin domains with oligolysine (4Lys) tails have been constructed; made in house; host or cells: E. coli (periplasm)
Experimental: as §1

[5] = target: F17aG lectin domain (Escherichia coli, UniProt Q99003); settings: array version 4.1, exp. 2053
Text: With mammalian printed array version 4.1, a new evaluation parameter was taken into account, namely % CV = 100 × Std. Dev/Mean. The highest and the lowest point from each set of six replicates have been removed so the average is of 4 values rather than 6. This eliminates some of the false hits that contain a single very high or low point. Thus, points with a high % CV should be considered suspect. […] This comparison provides information on binding specificity. The CFG glycan array data are available containing searchable results by means of flex-based data browser tools.
(§2) A microarray presenting 264 different glycans (mammalian printed array version 2 from the CFG, experiment 400) was used to evaluate whether the F17G variant lectin domains differ in the range of glycan receptors that they can recognize, thereby establishing strain-dependent tropism. […] The glycan array screening has been repeated for F17aG only on printed array version 4.1 (experiment 2053) (Figure 1).

[6] = system: FedF lectin domain; experiment: CFG glycan array version 2 (experiment 399), FedF lectin domain; format: binding, Escherichia coli; settings: CFG glycan array experiment 399; FedF 100 μg/mL
Text: The most highly, triple, sulfated disaccharide (1) is here the best binder: Galβ1,4GlcNAc sulfated at positions 3', 6' and 6 (Table 3). Sulfation of the O6 hydroxyl (2) of GlcNAc is important, as well as N-acetylation on its position 2 (3) because the lactose form has lower affinity. Monosulfation on the non-reducing end galactose (one ion at either 3', 6' or 4') and lack of sulfation at the reducing end GlcNAc each decrease the fluorescence signal dramatically.

[7] = target: F17bG lectin domain (Escherichia coli, UniProt Q47200); settings: array version 2, exp. 400
Experimental: A microarray presenting 264 different glycans (mammalian printed array version 2) was used to evaluate if the F17G variant lectin domains differ in the range of glycan receptors that they recognize, thereby establishing tropism. The microarray was set up within the Consortium for Functional Glycomics (CFG) ([20], and supplemental data). Binding of F17G (200 µg/mL) was detected using anti-F17G polyclonal rabbit IgG (10 µg/mL), followed by fluorescently labelled goat anti-rabbit polyclonal antibodies (IgG-488, 5 µg/mL).
as §2
Printed array version 2 at the Consortium for Functional Glycomics was used for glycan array screening of the variant F17G receptor binding domains. Slides were printed, with six replicates for each glycan, using glycan spotting concentrations of 100 μM, at the Consortium Carbohydrate Synthesis/Protein Expression Core D located at the Scripps Research Institute onto Schott Nexterion H slides (Schott Cat. No. 1070936B). Slide conditioning: preprinted slides were soaked in deionized water for 5 minutes at room temperature and dried under a stream of nitrogen. TSM buffer (20 mM Tris-HCl, pH 7.4, or MOPS 20 mM; 150 mM NaCl; 2 mM CaCl2, 2 mM MgCl2) was used as wash buffer (TSM buffer + 0.05% Tween 20) or binding buffer (TSM buffer + 0.05% Tween 20 + 1% BSA). (1) F17G was diluted to 200 μg/mL (Figure 1) in TSM binding buffer. (2) 50 μL of F17G was applied to the printed surface and coverslipped. (3) The slide was incubated, protected from light, in a humidified chamber for 1 hour at RT. (4) The slide was washed once in TSM wash buffer. 50 μL of the anti-F17G (10 μg/mL) polyclonal rabbit IgG were applied, coverslipped and incubated for 1 h at RT. (5) The slide was washed once in TSM wash buffer. Fifty μL of fluorescently labelled secondary goat anti-rabbit polyclonal antibodies (IgG-488, 5 µg/mL) were applied, coverslipped and incubated for 1 h at RT. (6) Slide was removed, followed by the coverslip, and washed for 10 s each in TSM wash buffer, TSM wash buffer lacking Tween 20, and deionized water. The slide was dried under a stream of nitrogen. (7) The binding image was read in a Perkin Elmer Microscanarray XL4000 scanner and tiff file of image stored. (8) Image analysis was performed using Imagene (V.6) image analysis software. (9) Raw data results files were generated in Excel format and uploaded to the Consortium database as .dat files. (10) Imagene data was uploaded to the database as .txt files.

[8] = system: FimH; set-up: method as in PMID 18446213; settings: cited from earlier work
[9] = SPR steady state, 25 °C, pH 7.4, read-out: Affinity range (Kd class), F17aG
[10] = read-out: Affinity range (Kd class), F17eG
[11] = SPR steady state, 25 °C, pH 7.4, good fit for at least three related experiments, read-out: dissociation constant Kd, F17aG
[12] = good fit for at least three related experiments, read-out: dissociation constant Kd, F17eG

T1 sequence (Q99003 23-199): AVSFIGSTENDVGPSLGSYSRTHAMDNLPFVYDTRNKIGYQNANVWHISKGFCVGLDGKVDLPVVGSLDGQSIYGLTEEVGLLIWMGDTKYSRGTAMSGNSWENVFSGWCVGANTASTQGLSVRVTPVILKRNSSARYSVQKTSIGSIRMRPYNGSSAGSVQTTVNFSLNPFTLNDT
F17fG receptor-binding domain, sequence (Q9RH91 23-198): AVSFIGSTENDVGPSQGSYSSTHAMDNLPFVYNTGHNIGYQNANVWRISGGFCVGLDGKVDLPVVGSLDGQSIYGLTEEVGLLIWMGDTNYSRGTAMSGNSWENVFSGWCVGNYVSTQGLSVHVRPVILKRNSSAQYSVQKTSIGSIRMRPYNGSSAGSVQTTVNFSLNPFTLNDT
T2 sequence (Q47200 23-199): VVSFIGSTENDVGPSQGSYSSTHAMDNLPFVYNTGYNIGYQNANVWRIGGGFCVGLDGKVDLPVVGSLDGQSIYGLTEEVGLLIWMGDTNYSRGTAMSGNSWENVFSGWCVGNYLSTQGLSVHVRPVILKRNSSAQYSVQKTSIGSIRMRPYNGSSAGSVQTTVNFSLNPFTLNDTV
F17aG lectin domain, sequence (Q99003 23-199): as the sequence (Q99003 23-199) above
F17bG lectin domain, sequence (Q47200 23-199): as the sequence (Q47200 23-199) above

**Q.** What does the source list for `CC(=O)N[C@@H]1[C@@H](O)[C@H](O)[C@@H](COS(=O)(=O)O)O[C@H]1O` [GlcNAc6SO3^−]?
**A.** Kd [1, 9]: 10 to 100 mM; Kd [2, 10]: 1 to 10 mM; Kd [3]: > 100 mM

**Q.** With `CC(=O)N[C@H]1[C@H](O[C@H]2[C@H](O)[C@@H](NC(C)=O)C(O)O[C@@H]2CO)O[C@H](CO)[C@@H](O)[C@@H]1O` (some centres unmarked) [GlcNAcβ1,4GlcNAc] as the compound, how does the Kd [4] read?
**A.** Its Kd is 1 to 10 mM.

**Q.** And the Kd [1, 11]?
**A.** Its Kd is 3.3 mM.

**Q.** What about the Kd [1, 9] of the same compound?
**A.** Its Kd is 1 to 10 mM.

**Q.** What about the Kd [3] of the same compound?
**A.** Its Kd is 1 to 10 mM.

**Q.** With HOOC(CH3)CH3-3-O-GlcNAcβ1,4GlcNAcβ-Sp10 as the compound, how does the “Rank among binders on CFG array, F17aG” value [5] read?
**A.** The value was “highest binding”.

**Q.** With `CC(=O)NC1C(O)OC(COS(=O)(=O)O)C(OC2OC(CO)C(O)C(OS(=O)(=O)O)C2O)C1O` (centres unmarked) [[3OSO3]Galβ1,4[6OSO3]GlcNAc] as the compound, how does the “RFU (averaged Relative Fluorescence Units for the six replicates), FedF lectin domain” value [6] read?
**A.** The value was 6,806 RFU.

**Q.** And the “Rank among binders on CFG array, F17bG (variant b)” value [7]?
**A.** Its value is 28th best binder.

**Q.** What about the “Rank among binders on CFG array, F17aG” value [5] of the same compound?
**A.** The value was “tenth best binder”.

**Q.** Which “RFU (averaged Relative Fluorescence Units for the six replicates), FedF lectin domain” value [6] does the source give for [3OSO3][6OSO3]Galβ1,4GlcNAc here?
**A.** Its value is 4,733 RFU.

**Q.** Which results are given for `CC(=O)N[C@H]1C(O)O[C@H](CO)[C@@H](O[C@@H]2O[C@H](CO)[C@@H](O)[C@H](O)[C@H]2N)[C@@H]1O[C@H](C)C(=O)O` (stereo partly drawn) [GlcNH2-MurNAc, glucosamine β1,4 N-actetylmuramic acid]?
**A.** Kd [4]: 10 to 100 mM; Kd [1, 9]: 10 to 100 mM; Kd [3]: > 100 mM

**Q.** With Galβ1,6GlcNAc as the compound, how does the Kd [2, 10] read?
**A.** The Kd was 1 to 10 mM.

**Q.** And the Kd [3]?
**A.** The Kd was 10 to 100 mM.

**Q.** Which Kd [4] does the source give for `CC(=O)N[C@H]1C(O)O[C@H](COP(=O)(O)O)[C@@H](O)[C@@H]1O` (some centres unmarked) [GlcNAc6PO3^2−] here?
**A.** The Kd was 10 to 100 mM.

**Q.** And the Kd [1, 9]?
**A.** Its Kd is greater than 100 mM.

**Q.** What about the Kd [3] of the same compound?
**A.** Its Kd is greater than 100 mM.

**Q.** With `CC(=O)N[C@H]1C(O)O[C@H](COS(=O)(=O)O)[C@@H](O[C@@H]2O[C@H](COS(=O)(=O)O)[C@H](O)[C@H](OS(=O)(=O)O)[C@H]2O)[C@@H]1O` (some centres unmarked) [[3OSO3][6OSO3]Galβ1,4[6OSO3]GlcNAc] as the compound, how does the “RFU (averaged Relative Fluorescence Units for the six replicates), FedF lectin domain” value [6] read?
**A.** The value was 10,388 RFU.

**Q.** Which results are given for `CO[C@@H]1O[C@H](CO)[C@H](O)[C@H](O[C@@H]2O[C@H](CO)[C@@H](O)[C@H](O)[C@H]2NC(C)=O)[C@H]1O` [GlcNAcβ1,3Gal, GlcNAc(β1-3)Galβ1OMe]?
**A.** Kd [4]: 1 to 10 mM; Kd ([1]; SPR measurements, text says F17G without variant, read-out: Kd of F17G as stated in the discussion): 0.66 mM; Kd [1, 11]: 0.66 mM; Kd [1, 9]: 0.1 to 1 mM; Kd [2, 12]: 0.28 mM; Kd [3]: 0.1 to 1 mM

**Q.** With `CC(=O)N[C@H]1C(O)O[C@H](CO)[C@@H](O)[C@@H]1OS(=O)(=O)O` (some centres unmarked) [GlcNAc3SO3^−] as the compound, how does the Kd [4] read?
**A.** Its Kd is 1 to 10 mM.

**Q.** What about the Kd [1, 9] of the same compound?
**A.** The Kd was 1 to 10 mM.

**Q.** And the Kd [3]?
**A.** The Kd was greater than 100 mM.

**Q.** Which “RFU (averaged Relative Fluorescence Units for the six replicates), FedF lectin domain” value [6] does the source give for `O=S(=O)(O)OC[C@H]1O[C@@H](O[C@H]2[C@H](O)[C@@H](O)C(O)O[C@@H]2COS(=O)(=O)O)[C@H](O)[C@@H](O)[C@H]1O` (some centres unmarked) [[6OSO3]Galβ1,4[6OSO3]Glc] here?
**A.** The value was 5,405 RFU.

**Q.** For `O=S(=O)(O)OCC1OC(O)C(O)C(O)C1OC1OC(CO)C(O)C(OS(=O)(=O)O)C1O` (centres unmarked) [[3OSO3]Galβ1,4[6OSO3]Glc], which “RFU (averaged Relative Fluorescence Units for the six replicates), FedF lectin domain” value [6] is on record?
**A.** The value was 4,073 RFU.

**Q.** For `CC(=O)N[C@H]1[C@H](Oc2ccc([N+](=O)[O-])cc2)O[C@H](CO)[C@@H](O)[C@@H]1O` [pNP-GlcNAc, paranitrophenyl β-GlcNAc], which Kd [4] is on record?
**A.** Its Kd is 10 to 100 mM.

**Q.** And the Kd [1, 9]?
**A.** The Kd was 0.1 to 1 mM.

**Q.** What about the Kd [3] of the same compound?
**A.** The Kd was 1 to 10 mM.

**Q.** With `CC(=O)N[C@@H]1C(O)O[C@H](CO)[C@@H](O)[C@@H]1O` (some centres unmarked) [N-acetylmannosamine] as the compound, how does the Kd [4] read?
**A.** Its Kd is 10 to 100 mM.

**Q.** And the Kd [1, 9]?
**A.** The Kd was 1 to 10 mM.

**Q.** And the Kd [3]?
**A.** Its Kd is 1 to 10 mM.

**Q.** With `CO[C@@H]1O[C@H](CO[C@@H]2O[C@H](CO)[C@@H](O)[C@H](O)[C@H]2NC(C)=O)[C@H](O)[C@H](O)[C@H]1O` [GlcNAcβ1,6Gal, GlcNAc(β1-6)Galβ1OMe] as the compound, how does the Kd [1, 11] read?
**A.** The Kd was 2.8 mM.

**Q.** What about the Kd [1, 9] of the same compound?
**A.** The Kd was 1 to 10 mM.

**Q.** And the Kd [2, 12]?
**A.** The Kd was 3.8 mM.

**Q.** And the Kd [2, 10]?
**A.** The Kd was 1 to 10 mM.

**Q.** With `CC(=O)NC1C(O)OC(CO)C(OC2OC(COS(=O)(=O)O)C(OS(=O)(=O)O)C(O)C2O)C1O` (centres unmarked) [[4OSO3][6OSO3]Galβ1,4GlcNAc] as the compound, how does the “RFU (averaged Relative Fluorescence Units for the six replicates), FedF lectin domain” value [6] read?
**A.** Its value is 4,568 RFU.

**Q.** For `CC(=O)N[C@H]1[C@H](O[C@H]2[C@H](O)[C@@H](NC(C)=O)C(O)O[C@@H]2CO)O[C@H](CO)[C@@H](O[C@@H]2O[C@H](CO[C@H]3O[C@H](CO)[C@@H](O)[C@H](O)[C@@H]3O)[C@@H](O)[C@H](O[C@H]3O[C@H](CO)[C@@H](O)[C@H](O)[C@@H]3O)[C@@H]2O)[C@@H]1O` (some centres unmarked) [oligomannose-3], which “increased binding compared to α-D-mannose” value [8] is on record?
**A.** The value was 100 fold.
